The results in this text go back to patent publication US12037344B2, “NLRP3 modulators” (INNATE TUMOR IMMUNITY, INC., priority 2018, dated 2024).

A word on the EC50: it is the concentration at which the effect is half-maximal.

Molecules are shown by their SMILES. Where two headings read alike, the source gives them in different places.

One assay addresses T1, TLR8 (Homo sapiens, UniProt Q9NR97).
T1 construct: human HEK-Blue cells co-expressing a TLR7 or TLR8 gene
T1 sequence (Q9NR97 27-1041): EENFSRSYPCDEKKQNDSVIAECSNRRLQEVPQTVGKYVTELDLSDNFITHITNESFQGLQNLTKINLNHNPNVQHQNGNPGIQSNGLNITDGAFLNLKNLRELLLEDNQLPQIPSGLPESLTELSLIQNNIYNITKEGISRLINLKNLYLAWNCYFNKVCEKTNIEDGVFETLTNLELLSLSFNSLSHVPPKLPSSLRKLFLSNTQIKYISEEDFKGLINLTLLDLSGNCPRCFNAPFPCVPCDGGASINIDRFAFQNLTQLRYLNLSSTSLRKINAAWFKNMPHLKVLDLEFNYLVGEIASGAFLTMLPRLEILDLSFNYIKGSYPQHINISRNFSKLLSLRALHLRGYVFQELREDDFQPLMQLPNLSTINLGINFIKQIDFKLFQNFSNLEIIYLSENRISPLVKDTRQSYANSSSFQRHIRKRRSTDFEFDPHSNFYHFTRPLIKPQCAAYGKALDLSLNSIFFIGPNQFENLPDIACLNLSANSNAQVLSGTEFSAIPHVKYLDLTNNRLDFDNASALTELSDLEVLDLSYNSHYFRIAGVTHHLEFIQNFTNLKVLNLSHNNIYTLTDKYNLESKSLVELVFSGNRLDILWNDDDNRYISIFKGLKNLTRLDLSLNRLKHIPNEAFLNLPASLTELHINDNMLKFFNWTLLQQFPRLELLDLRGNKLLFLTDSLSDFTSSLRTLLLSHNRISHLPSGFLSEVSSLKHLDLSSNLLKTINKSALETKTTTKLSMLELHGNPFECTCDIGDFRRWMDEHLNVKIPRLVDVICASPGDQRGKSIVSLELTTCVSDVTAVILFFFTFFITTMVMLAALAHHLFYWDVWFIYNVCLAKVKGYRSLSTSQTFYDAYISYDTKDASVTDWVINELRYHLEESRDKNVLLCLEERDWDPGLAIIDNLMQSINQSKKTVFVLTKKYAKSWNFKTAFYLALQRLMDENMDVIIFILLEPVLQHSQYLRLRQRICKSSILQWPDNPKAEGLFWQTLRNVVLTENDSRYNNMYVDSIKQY
Description: In vitro human TLR8 binding reporter assay (HEK-Blue, NF-kB/AP1-inducible SEAP). The settings on record: activity range class, read-out: TLR8 Agonist EC50. The assay is classed as cell-based. In a few lines: (§1)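 Cells are seeded and grown for 24 h. Compounds or DMSO are then added and incubated 18 h at 37 °C. Quanti-Blue is added, and SEAP is read after thirty minutes. EC50 values are normalized, with RLU from 50 μM reference standard setting 100% Ymax.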
On the technique in general: Reporter assays use an easily measured gene product as a stand-in for the process of interest.

For a further assay, the target named is T2, TLR7 (Homo sapiens, UniProt Q9NYK1).
T2 construct: human HEK-Blue cells co-expressing a TLR7 or TLR8 gene
T2 sequence (Q9NYK1 27-1049): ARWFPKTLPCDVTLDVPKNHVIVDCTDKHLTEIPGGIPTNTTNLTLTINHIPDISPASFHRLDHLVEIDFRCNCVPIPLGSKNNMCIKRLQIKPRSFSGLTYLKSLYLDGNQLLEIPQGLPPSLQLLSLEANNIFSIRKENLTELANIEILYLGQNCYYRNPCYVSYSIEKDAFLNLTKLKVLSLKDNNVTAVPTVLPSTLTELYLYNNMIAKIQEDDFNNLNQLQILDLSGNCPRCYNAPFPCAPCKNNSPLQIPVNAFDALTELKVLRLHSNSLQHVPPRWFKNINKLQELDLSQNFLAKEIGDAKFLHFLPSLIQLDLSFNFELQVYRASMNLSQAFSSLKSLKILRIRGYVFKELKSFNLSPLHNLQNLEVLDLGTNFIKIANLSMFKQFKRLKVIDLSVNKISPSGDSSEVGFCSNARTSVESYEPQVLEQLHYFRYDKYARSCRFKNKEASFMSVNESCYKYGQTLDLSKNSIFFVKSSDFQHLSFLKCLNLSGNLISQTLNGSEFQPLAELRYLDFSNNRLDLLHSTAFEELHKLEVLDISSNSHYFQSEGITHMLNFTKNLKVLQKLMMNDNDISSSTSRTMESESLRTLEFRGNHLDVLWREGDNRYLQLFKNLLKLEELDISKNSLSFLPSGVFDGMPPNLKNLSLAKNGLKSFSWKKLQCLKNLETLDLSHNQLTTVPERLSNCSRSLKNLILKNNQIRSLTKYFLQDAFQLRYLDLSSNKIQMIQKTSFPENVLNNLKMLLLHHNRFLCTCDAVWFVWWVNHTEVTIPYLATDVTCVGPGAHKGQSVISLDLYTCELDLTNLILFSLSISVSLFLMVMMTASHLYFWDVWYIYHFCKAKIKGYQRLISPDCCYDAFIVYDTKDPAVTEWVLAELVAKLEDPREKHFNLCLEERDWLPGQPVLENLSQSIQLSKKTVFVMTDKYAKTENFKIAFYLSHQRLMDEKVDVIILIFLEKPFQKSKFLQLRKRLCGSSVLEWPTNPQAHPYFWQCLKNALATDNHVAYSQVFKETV
The assay can be described thus: In vitro human TLR7 binding reporter assay (HEK-Blue, NF-kB/AP1-inducible SEAP). The assay is classed as cell-based. The following applies: activity range class, read-out: TLR7 Agonist EC50. In a few lines: as §1

Another assay concerns THP-1 cells. The assay can be described thus: Measurement of IL-1β production, hTRF protocol (second alternative procedure), THP-1 cells. The assay is classed as cell-based, human. The settings on record: Homo sapiens. In a few lines:
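Compounds, dilution series starting at a final 10 μM, were incubated 2 hours at 37° C with PMA-differentiated THP-1 cells (50 ng/ml overnight; 50,000 cells/well, 2% FBS RPMI). Released IL-1β quantified in supernatant by hTRF kit with 1:40 antibody dilution, 4° C overnight, 665/615 nm ratio.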

[1] abbreviates: THP-1, IL-1β production, human, read-out: NLRP3 hILIB EC50.
Where [2] appears, read: THP-1, read-out: NLRP3 hILIB EC50.

`Nc1nc2cc(-c3cc[nH]n3)ccc2c2cn(CCN3Cc4cc(Cl)ccc4C3=O)nc12` [Example 104, 2-{2-[4-amino-7-(1H-pyrazol-3-yl)-2H-pyrazolo[3,4-c]quinolin-2-yl]ethyl}-5-chloro-2,3-dihydro-1H-isoindol-1-one]: the EC50 at TLR8 was 1 to 20 µM; on TLR7, 20 to 100 µM; with THP-1 cells (setting [1]), 0.13 µM.
On to `Cc1ccccc1CNCCn1cc2c(n1)c(N)nc1cc(-c3cc[nH]n3)ccc12` [Example 105, 2-(2-{[(2-methylphenyl)methyl]amino}ethyl)-7-(1H-pyrazol-3-yl)-2H-pyrazolo[3,4-c]quinolin-4-amine], for which the results for the EC50 at TLR8, on TLR7 and with THP-1 cells (setting [1]) were above 100 µM, 20 to 100 µM and 0.98 µM, respectively.
Consider `Nc1nc2cc(-c3cc[nH]n3)ccc2c2cn(CCNCc3cccc(F)c3)nc12` [Example 106], for which the EC50 at TLR8 was 20 to 100 µM; on TLR7, 20 to 100 µM; with THP-1 cells (setting [1]) it was 1.91 µM.
`Nc1nc2cc(-c3cc[nH]n3)ccc2c2cn(CCNCc3ccc(Cl)cc3)nc12` [Example 107]: the EC50 at TLR8 is above 100 µM; at TLR7, above 100 µM; with THP-1 cells (setting [1]), 2.63 µM.
On to `Nc1nc2cc(-c3cc[nH]n3)ccc2c2cn(CCNCc3ccccc3)nc12` [Example 108], for which the results for the EC50 at TLR8, at TLR7 and in the assay on THP-1 cells (setting [1]) were 20 to 100 µM, 20 to 100 µM and 0.91 µM, respectively.
In the case of `CC(C)NCCn1cc2c(n1)c(N)nc1cc(-c3cc[nH]n3)ccc12` [Example 109], the figures for the EC50 on TLR8, on TLR7 and in the assay on THP-1 cells (setting [1]) were 20 to 100 µM, 20 to 100 µM and 1.78 µM, respectively.
For the compound `Nc1nc2cc(-c3cc[nH]n3)ccc2c2cn(CCNCc3cccnc3)nc12` [Example 110], the EC50 was 1 to 20 µM at TLR8, 20 to 100 µM on TLR7 and 13.1 µM in the assay with THP-1 cells (setting [1]).
For `COc1ccc(CNCCn2cc3c(n2)c(N)nc2cc(-c4cc[nH]n4)ccc23)cc1` [Example 111], the EC50 at TLR8 is above 100 µM; on TLR7, 20 to 100 µM; in the assay on THP-1 cells (setting [1]) it was 2.09 µM.
Regarding `Nc1nc2cc(-c3cc[nH]n3)ccc2c2cn(CCNCc3ccccn3)nc12` [Example 112], the figures for the EC50 at TLR8, on TLR7 and with THP-1 cells (setting [1]) were above 100 µM, above 100 µM and 2.5 µM, respectively.
On to `CS(=O)(=O)NCCn1cc2c(n1)c(N)nc1cc(-c3cc[nH]n3)ccc12` [Example 113, N-{2-[4-amino-7-(1H-pyrazol-3-yl)-2H-pyrazolo[3,4-c]quinolin-2-yl]ethyl}methanesulfonamide], for which the EC50 was above 100 µM at TLR8, 20 to 100 µM at TLR7 and 3.83 µM in the assay with THP-1 cells (setting [1]).
With `Nc1nc2cc(-c3cc[nH]n3)ccc2c2cn(CCNS(=O)(=O)c3ccccc3)nc12` [Example 114, N-{2-[4-amino-7-(1H-pyrazol-3-yl)-2H-pyrazolo[3,4-c]quinolin-2-yl]ethyl}benzenesulfonamide], the EC50 was above 100 µM at TLR8, above 100 µM on TLR7 and 4.84 µM in the assay with THP-1 cells (setting [2]).
As for `Nc1nc2cc(-c3cc[nH]n3)ccc2c2cn(CCNC(=O)Nc3ccccc3)nc12` [Example 115, 3-{2-[4-amino-7-(1H-pyrazol-3-yl)-2H-pyrazolo[3,4-c]quinolin-2-yl]ethyl}-1-phenylurea], the figures for the EC50 at TLR8, at TLR7 and in the assay with THP-1 cells (setting [1]) were above 100 µM, above 100 µM and 7.76 µM, respectively.
Turning to `CN(C)C(=O)NCCn1cc2c(n1)c(N)nc1cc(-c3cc[nH]n3)ccc12` [Example 116, 1-{2-[4-amino-7-(1H-pyrazol-3-yl)-2H-pyrazolo[3,4-c]quinolin-2-yl]ethyl}-3,3-dimethylurea], the EC50 at TLR8 was above 100 µM; at TLR7, above 100 µM; in the assay with THP-1 cells (setting [2]), 7.43 µM.
In the case of `Nc1nc2cc(-c3cc[nH]n3)ccc2c2cn(CCNC(=O)Oc3ccccc3)nc12` [Example 117, phenyl N-{2-[4-amino-7-(1H-pyrazol-3-yl)-2H-pyrazolo[3,4-c]quinolin-2-yl]ethyl}carbamate], the EC50 on TLR8 was 20 to 100 µM; on TLR7, above 100 µM; in the assay on THP-1 cells (setting [2]), 0.57 µM.
As for `CC(C)(C)OC(=O)NCCn1cc2c(n1)c(N)nc1cc(-c3cc[nH]n3)ccc12` [Example 118, tert-butyl N-{2-[4-amino-7-(1H-pyrazol-3-yl)-2H-pyrazolo[3,4-c]quinolin-2-yl]ethyl}carbamate], the values for the EC50 on TLR8, at TLR7 and in the assay with THP-1 cells (setting [1]) were above 100 µM, above 100 µM and 0.86 µM, respectively.
Take `CC(=O)N(C)CCn1cc2c(n1)c(N)nc1cc(-c3cc[nH]n3)ccc12` [Example 119, N-{2-[4-amino-7-(1H-pyrazol-3-yl)-2H-pyrazolo[3,4-c]quinolin-2-yl]ethyl}-N-methylacetamide]: the concentration giving a half-maximal response (EC50) is above 100 µM at TLR8, above 100 µM at TLR7 and 9.02 µM in the assay on THP-1 cells (setting [1]).
As for `CN(CCn1cc2c(n1)c(N)nc1cc(-c3cc[nH]n3)ccc12)C(=O)c1ccccc1` [Example 120, N-{2-[4-amino-7-(1H-pyrazol-3-yl)-2H-pyrazolo[3,4-c]quinolin-2-yl]ethyl}-N-methylbenzamide], the figures for the EC50 at TLR8, on TLR7 and in the assay on THP-1 cells (setting [2]) were 20 to 100 µM, above 100 µM and 1.87 µM, respectively.
Regarding `CN(CCn1cc2c(n1)c(N)nc1cc(-c3cc[nH]n3)ccc12)Cc1ccccc1` [Example 121, 2-{2-[benzyl(methyl)amino]ethyl}-7-(1H-pyrazol-3-yl)-2H-pyrazolo[3,4-c]quinolin-4-amine], the EC50 at TLR8 is above 100 µM; at TLR7, above 100 µM; in the assay on THP-1 cells (setting [2]), 0.85 µM.
On to `Nc1nc2cc(-c3cc[nH]n3)ccc2c2cn(CCN3CCCC3=O)nc12` [Example 122, 1-{2-[4-amino-7-(1H-pyrazol-3-yl)-2H-pyrazolo[3,4-c]quinolin-2-yl]ethyl}pyrrolidin-2-one], for which the EC50 is above 100 µM on TLR8, above 100 µM at TLR7 and 5.99 µM in the assay on THP-1 cells (setting [1]).
In the case of `Nc1nc2cc(-c3cc[nH]n3)ccc2c2cn(CCCNC(=O)c3ccccc3)nc12` [Example 123, N-{3-[4-amino-7-(1H-pyrazol-3-yl)-2H-pyrazolo[3,4-c]quinolin-2-yl]propyl}benzamide], the values for the EC50 on TLR8, on TLR7 and in the assay on THP-1 cells (setting [2]) were above 100 µM, above 100 µM and 9.02 µM, respectively.
As to `Nc1nc2cc(-c3cc[nH]n3)ccc2c2cn(CCCNC(=O)c3ccccn3)nc12` [Example 124], the results for the EC50 on TLR8, at TLR7 and with THP-1 cells (setting [1]) were above 100 µM, above 100 µM and 9.76 µM, respectively.
